Measured values taken from ChEMBL document CHEMBL5380778, “Structure-Directed Discovery of Potent Soluble Epoxide Hydrolase Inhibitors for the Treatment of Inflammatory Diseases” (J Med Chem, 2023).

Experiments:
[1] = target: T1, Bifunctional epoxide hydrolase 2 (Mus musculus, UniProt P34914); experiment: Inhibition of recombinant mouse soluble epoxide hydrolase using PHOME as substrate assessed as 6-methoxynaphthaldehyde product formation preincubated with compound for 10 mins followed by substrate addition and measured by fluorescence based analysis
T1 sequence (P34914 whole entry): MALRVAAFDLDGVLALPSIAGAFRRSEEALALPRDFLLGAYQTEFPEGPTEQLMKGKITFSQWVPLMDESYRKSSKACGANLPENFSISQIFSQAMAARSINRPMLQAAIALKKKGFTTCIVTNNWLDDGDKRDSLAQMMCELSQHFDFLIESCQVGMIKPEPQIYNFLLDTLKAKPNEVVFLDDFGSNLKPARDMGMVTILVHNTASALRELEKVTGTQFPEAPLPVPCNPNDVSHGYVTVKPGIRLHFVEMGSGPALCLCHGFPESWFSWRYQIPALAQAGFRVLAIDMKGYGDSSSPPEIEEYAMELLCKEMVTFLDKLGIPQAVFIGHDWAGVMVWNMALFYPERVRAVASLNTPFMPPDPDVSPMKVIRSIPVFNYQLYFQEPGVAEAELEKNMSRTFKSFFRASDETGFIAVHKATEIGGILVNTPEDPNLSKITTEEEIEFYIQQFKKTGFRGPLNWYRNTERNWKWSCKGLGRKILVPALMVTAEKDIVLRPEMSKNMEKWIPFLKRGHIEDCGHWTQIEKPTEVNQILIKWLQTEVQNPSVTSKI

[2] = target: T2, Bifunctional epoxide hydrolase 2 (Homo sapiens, UniProt P34913); experiment: Inhibition of recombinant human soluble epoxide hydrolase using PHOME as substrate assessed as 6-methoxynaphthaldehyde product formation preincubated with compound for 10 mins followed by substrate addition and measured by fluorescence based analysis
T2 sequence (P34913 whole entry): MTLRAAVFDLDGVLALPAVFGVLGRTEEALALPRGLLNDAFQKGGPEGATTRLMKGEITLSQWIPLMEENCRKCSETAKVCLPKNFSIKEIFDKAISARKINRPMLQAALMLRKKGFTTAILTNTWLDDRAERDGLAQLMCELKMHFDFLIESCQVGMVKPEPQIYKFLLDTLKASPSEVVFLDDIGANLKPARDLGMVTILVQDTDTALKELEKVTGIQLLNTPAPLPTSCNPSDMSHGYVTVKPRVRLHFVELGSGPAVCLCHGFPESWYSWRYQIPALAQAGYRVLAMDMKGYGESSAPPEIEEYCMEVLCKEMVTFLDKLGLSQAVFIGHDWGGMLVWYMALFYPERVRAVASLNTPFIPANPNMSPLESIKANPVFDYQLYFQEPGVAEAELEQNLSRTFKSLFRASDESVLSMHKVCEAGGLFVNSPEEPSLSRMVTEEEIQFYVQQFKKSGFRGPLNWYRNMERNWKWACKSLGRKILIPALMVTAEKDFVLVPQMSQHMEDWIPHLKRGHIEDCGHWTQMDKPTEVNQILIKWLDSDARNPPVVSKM

[3] = Cmax in Sprague-Dawley rat at 10 mg/kg, iv administered as single dose and measured upto 8 hrs by HPLC analysis; format: ADME, organism-based; set-up: time < 8 hrs, dose 10 mg/kg, route iv; conditions: in vivo
Mus musculus [4] = experiment: Anti-inflammatory activity in L-arginine-induced acute pancreatitis kunming mouse model assessed as reversal of L-arginine induced pancreatic injury by measuring total score at 8 mg/kg, ip pre-treated with L-arginine for 14 hrs followed by compound treatment and measured after 10 hrs by histologic scoring analysis (reference value: 6.25 +/- 0.96); format: functional
[5] = Microsomal stability in Sprague-Dawley rat liver microsomes assessed as mean compound concentration measured after 60 mins in the presence of NADPH-generating system by HPLC analysis (Rvb= 100 ug/ml); format: ADME, Microsome; conditions: 1 h
[6] = Half-life in Sprague-Dawley rat at 50 mg/kg, po administered as single dose and measured upto 8 hrs by HPLC analysis; format: ADME, organism-based; conditions: in vivo
[7] = AUC (0 to 8 hrs) in Sprague-Dawley rat at 50 mg/kg, po administered as single dose and measured upto 8 hrs by HPLC analysis; format: ADME, organism-based; set-up: dose 50 mg/kg, time < 8 hrs, route po; conditions: in vivo
[8] = Toxicity in LPS-induced C57BL/6 sepsis mouse model assessed as survival rate at 5 mg/kg, ip administered at 4 and 12 hrs post LPS-induction and measured after 28 hrs relative to control; format: organism-based; conditions: in vivo
[9] = Protein binding in Sprague-Dawley rat plasma by equilibrium dialysis; format: ADME, cell-free
[10] = AUC (0 to infinity) in Sprague-Dawley rat at 10 mg/kg, iv administered as single dose and measured upto 8 hrs by HPLC analysis; format: ADME, organism-based; set-up: dose 10 mg/kg, time < 8 hrs, route iv; conditions: in vivo
[11] = Toxicity in mouse assessed as tolerance by measuring adverse events at 200 mg/kg, po administered for 7 days; format: organism-based; conditions: in vivo, 168 h, time 7 day
[12] = Half-life in Sprague-Dawley rat at 10 mg/kg, iv administered as single dose and measured upto 8 hrs by HPLC analysis; format: ADME, organism-based; conditions: in vivo
[13] = Clearance in Sprague-Dawley rat at 50 mg/kg, po administered as single dose and measured upto 8 hrs by HPLC analysis; format: ADME, organism-based; conditions: in vivo
[14] = Oral bioavailability in Sprague-Dawley rat at 50 mg/kg administered as single dose and measured upto 8 hrs by HPLC analysis; format: ADME, organism-based; conditions: in vivo
[15] = Tmax in Sprague-Dawley rat at 50 mg/kg, po administered as single dose and measured upto 8 hrs by HPLC analysis; format: ADME, organism-based; conditions: in vivo
Mus musculus [16] = experiment: Anti-inflammatory activity in L-arginine-induced acute pancreatitis kunming mouse model assessed as reversal of L-arginine induced pancreatic injury by measuring total score at 3 mg/kg, ip pre-treated with L-arginine for 14 hrs followed by compound treatment and measured after 10 hrs by histologic scoring analysis (reference value: 6.25 +/- 0.96); format: functional
[17] = Cmax in Sprague-Dawley rat at 50 mg/kg, po administered as single dose and measured upto 8 hrs by HPLC analysis; format: ADME, organism-based; set-up: time < 8 hrs, dose 50 mg/kg, route po; conditions: in vivo
[18] = AUC (0 to infinity) in Sprague-Dawley rat at 50 mg/kg, po administered as single dose and measured upto 8 hrs by HPLC analysis; format: ADME, organism-based; set-up: time < 8 hrs, dose 50 mg/kg, route po; conditions: in vivo
[19] = Clearance in Sprague-Dawley rat at 10 mg/kg, iv administered as single dose and measured upto 8 hrs by HPLC analysis; format: ADME, organism-based; conditions: in vivo
[20] = Microsomal stability in Sprague-Dawley rat liver microsomes assessed as mean compound concentration measured after 30 mins in the presence of NADPH-generating system by HPLC analysis (Rvb= 100 ug/ml); format: ADME, Microsome; conditions: 0.5 h
[21] = Apparent volume of distribution in Sprague-Dawley rat at 10 mg/kg, iv administered as single dose and measured upto 8 hrs by HPLC analysis; format: ADME, organism-based; conditions: in vivo
[22] = Tmax in Sprague-Dawley rat at 10 mg/kg, iv administered as single dose and measured upto 8 hrs by HPLC analysis; format: ADME, organism-based; conditions: in vivo
[23] = Microsomal stability in human liver microsomes assessed as mean compound concentration measured after 30 mins in the presence of NADPH-generating system by HPLC analysis (Rvb= 100 ug/ml); format: ADME, Microsome; conditions: 0.5 h
[24] = Microsomal stability in human liver microsomes assessed as mean compound concentration measured after 10 mins in the presence of NADPH-generating system by HPLC analysis (Rvb= 100 ug/ml); format: ADME, Microsome
[25] = Microsomal stability in human liver microsomes assessed as mean compound concentration measured after 60 mins in the presence of NADPH-generating system by HPLC analysis (Rvb= 100 ug/ml); format: ADME, Microsome; conditions: 1 h
[26] = Toxicity in LPS-induced C57BL/6 sepsis mouse model assessed as survival rate at 5 mg/kg, ip administered at 4 and 12 hrs post LPS-induction and measured after 35 hrs relative to control; format: organism-based; conditions: in vivo
[27] = AUC (0 to 8 hrs) in Sprague-Dawley rat at 10 mg/kg, iv administered as single dose and measured upto 8 hrs by HPLC analysis; format: ADME, organism-based; set-up: time < 8 hrs, dose 10 mg/kg, route iv; conditions: in vivo
[28] = Apparent volume of distribution in Sprague-Dawley rat at 50 mg/kg, po administered as single dose and measured upto 8 hrs by HPLC analysis; format: ADME, organism-based; conditions: in vivo
[29] = Metabolic stability in Sprague-Dawley rat liver microsomes assessed as half-life measured upto 60 mins in the presence of NADPH generating system by HPLC analysis; format: ADME, Microsome; conditions: 1 h
[30] = Metabolic stability in human liver microsomes assessed as half-life measured upto 60 mins in the presence of NADPH generating system by HPLC analysis; format: ADME, Microsome; conditions: 1 h
[31] = Microsomal stability in Sprague-Dawley rat liver microsomes assessed as mean compound concentration measured after 10 mins in the presence of NADPH-generating system by HPLC analysis (Rvb= 100 ug/ml); format: ADME, Microsome
[32] = Toxicity in mouse assessed as effect on body weight at 200 mg/kg, po administered for 7 days; format: organism-based; conditions: in vivo, 168 h, time 7 day

Compound: C[C@]12C[C@@H]3C[C@](C)(C1)C[C@@](NC(=O)Nc1ccc(CN4CCCN(C(=O)CC5CCN(CCO)CC5)CC4)cc1F)(C3)C2
- IC50 [1]: 0.61 nM
- IC50 [2]: 4.69 nM

Compound: CC(CN(C)C)N1CCC(CC(=O)N2CCCN(C(=O)c3ccc(NC(=O)N[C@@]45C[C@@H]6C[C@@](C)(C[C@@](C)(C6)C4)C5)c(F)c3)CC2)CC1 (some centres not stated)
- IC50 [1]: 0.8 nM
- IC50 [2]: 19.6 nM

Compound: CCN(CC)CCN1CCC(CC(=O)N2CCCN(Cc3ccc(NC(=O)N[C@@]45C[C@@H]6C[C@@](C)(C[C@@](C)(C6)C4)C5)c(F)c3)CC2)CC1
- IC50 [1]: 1.37 nM
- IC50 [2]: 2.1 nM

Compound: COC(=O)N1CCC(CC(=O)N2CCCN(Cc3ccc(NC(=O)N[C@@]45C[C@@H]6C[C@@](C)(C[C@@](C)(C6)C4)C5)c(F)c3)CC2)CC1
- IC50 [1]: 0.41 nM
- IC50 [2]: 1.1 nM

Compound: CN(C)CCN1CCC(CC(=O)N2CCCN(Cc3ccc(NC(=O)N[C@@]45C[C@@H]6C[C@@](C)(C[C@@](C)(C6)C4)C5)c(F)c3)CC2)CC1
- IC50 [1]: 0.67 nM
- IC50 [2]: 2.59 nM

Compound: CCC(=O)N1CCCN(C(=O)C2CCCN(Cc3ccc(NC(=O)N[C@@]45C[C@@H]6C[C@@](C)(C[C@@](C)(C6)C4)C5)c(F)c3)C2)CC1 (some centres not stated)
- Cmax [3]: 3.77 nM
- Activity (Mus musculus [4]): 3.5
- Stability [5]: 62.01 µg/mL
- t1/2 [6]: 5.55 h
- AUC [7]: 6.39 nM·h
- Activity [8]: 37.5%
- PPB [9]: 72.57%
- AUC [10]: 11.47 nM·h
- Activity [11]: Non-Toxic
- t1/2 [12]: 5.72 h
- CL [13]: 28.3 mL/min/kg
- F [14]: 20.85%
- IC50 [1]: 0.14 nM
- Tmax [15]: 0.25 h
- IC50 [2]: 0.05 nM
- Activity (Mus musculus [16]): 4.25
- Cmax [17]: 2.92 nM
- AUC [18]: 10.15 nM·h
- CL [19]: 4.83 mL/min/kg
- Stability [20]: 66.63 µg/mL
- Vz [21]: 2.39 L/kg
- Tmax [22]: 1.8 min
- Stability [23]: 74.76 µg/mL
- Stability [24]: 81.12 µg/mL
- Stability [25]: 68.78 µg/mL
- Activity [26]: 12.5%
- AUC [27]: 6.13 nM·h
- Vz [28]: 13.12 L/kg
- t1/2 [29]: 3.15 h
- t1/2 [30]: 3.7 h
- Stability [31]: 75.04 µg/mL
- Activity [32]: Non-Toxic

Compound: CCC(=O)N1CCC(CC(=O)N2CCCN(Cc3ccc(NC(=O)N[C@@]45C[C@@H]6C[C@@](C)(C[C@@](C)(C6)C4)C5)c(F)c3)CC2)CC1
- IC50 [1]: 0.07 nM
- IC50 [2]: 0.33 nM

Compound: CC(=O)N1CCC(CC(=O)N2CCCN(Cc3ccc(NC(=O)N[C@@]45C[C@@H]6C[C@@](C)(C[C@@](C)(C6)C4)C5)c(F)c3)CC2)CC1
- IC50 [1]: 0.11 nM
- IC50 [2]: 0.49 nM

Compound: CCC(C)C(=O)N1CCC(CC(=O)N2CCCN(Cc3ccc(NC(=O)N[C@@]45C[C@@H]6C[C@@](C)(C[C@@](C)(C6)C4)C5)c(F)c3)CC2)CC1 (some centres not stated)
- IC50 [1]: 0.16 nM
- IC50 [2]: 0.77 nM

Compound: C=C(C)C(=O)N1CCC(CC(=O)N2CCCN(C(=O)c3ccc(NC(=O)N[C@@]45C[C@@H]6C[C@@](C)(C[C@@](C)(C6)C4)C5)cc3)CC2)CC1
- IC50 [1]: 0.13 nM
- IC50 [2]: 1 nM

Compound: C[C@]12C[C@@H]3C[C@](C)(C1)C[C@@](NC(=O)Nc1ccc(CN4CCCN(C(=O)CC5CCN(CC(O)CO)CC5)CC4)cc1F)(C3)C2 (some centres not stated)
- IC50 [1]: 1.25 nM
- IC50 [2]: 58.1 nM
